{"source": "ChEMBL document CHEMBL1132003", "about": "“2-chloro-3-substituted-1,4-naphthoquinone inactivators of human cytomegalovirus protease” (Bioorg Med Chem Lett, 1999)", "key": {"[1]": {"tested_on": "MRC5", "test": "Inhibitory activity against HCMV in a plaque assay(strain in MRC-5 cells)", "type": "functional, cell-based", "conditions": "Homo sapiens"}, "[2]": {"molecular_target": "T1, Neutrophil elastase (Homo sapiens, UniProt P08246)", "T1 sequence (P08246 whole entry)": "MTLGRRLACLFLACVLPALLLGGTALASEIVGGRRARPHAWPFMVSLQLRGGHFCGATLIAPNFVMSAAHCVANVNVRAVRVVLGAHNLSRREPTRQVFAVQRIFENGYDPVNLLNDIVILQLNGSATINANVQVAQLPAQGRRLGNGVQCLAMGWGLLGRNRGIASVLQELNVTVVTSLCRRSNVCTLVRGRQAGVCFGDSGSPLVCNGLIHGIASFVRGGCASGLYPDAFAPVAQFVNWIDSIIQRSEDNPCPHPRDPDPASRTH", "test": "Inhibitory activity against human Elastase […]"}, "[3]": {"tested_on": "MRC5", "test": "Inhibitory activity against HCMV protease in a plaque assay (strain AD169 in MRC-5 cells)", "type": "functional, cell-based", "conditions": "Homo sapiens"}, "[4]": {"tested_on": "HCMV protease (assemblin, Human betaherpesvirus 5)", "test": "Inhibitory activity against HCMV protease by SPA assay at 150 uM concentration"}}, "data": [{"smiles": "CC(=O)C(C(=O)OC(C)C)C1=C(Cl)C(=O)c2ccccc2C1=O", "note": "(centres undefined)", "values": [{"measurement": "IC50", "setting": "[1]", "result": 13, "unit": "µM"}]}, {"smiles": "CC(=O)C(C(=O)OCc1ccccc1)C1=C(Cl)C(=O)c2ccccc2C1=O", "note": "(centres undefined)", "values": [{"measurement": "IC50", "setting": "[2]", "result": 30, "unit": "µM"}]}, {"smiles": "CCOC(=O)C(C(C)=O)C1=C(Cl)C(=O)c2ccccc2C1=O", "note": "(centres undefined)", "values": [{"measurement": "IC50", "setting": "[3]", "result": 10, "unit": "µM"}]}, {"smiles": "CC1(C)CC(=O)C(C2=C(O)C(=O)c3ccccc3C2=O)C(=O)C1", "values": [{"measurement": "inhibition", "setting": "[4]", "result": 11, "unit": "%"}]}]}
